According to patent US12227487B1, “Acyloxy substituted phenyl dithiane derivatives” (Renovel Innovations, Inc, priority 2021, dated 2025):

Columns and labels:
[1] = test system: TNF-α; assay: TNF-α level in Lipopolysaccharide (LPS) treated mice; assay type: in vivo; settings: compared to the control Lipopolysaccharide (LPS) group
[2] = test system: IL-6; assay: IL-6 level in LPS treated mice; assay type: in vivo; settings: compared to the control LPS group
[3] = target: COX-1 enzyme (Homo sapiens, UniProt P23219); assay: COX-1 enzyme inhibition; assay type: biochemical; settings: FIG. 3A
[4] = target: T1, COX-2 enzyme (Homo sapiens, UniProt P35354); assay: COX-2 enzyme inhibition; assay type: biochemical; settings: FIG. 3A
T1 sequence (P35354 18-604): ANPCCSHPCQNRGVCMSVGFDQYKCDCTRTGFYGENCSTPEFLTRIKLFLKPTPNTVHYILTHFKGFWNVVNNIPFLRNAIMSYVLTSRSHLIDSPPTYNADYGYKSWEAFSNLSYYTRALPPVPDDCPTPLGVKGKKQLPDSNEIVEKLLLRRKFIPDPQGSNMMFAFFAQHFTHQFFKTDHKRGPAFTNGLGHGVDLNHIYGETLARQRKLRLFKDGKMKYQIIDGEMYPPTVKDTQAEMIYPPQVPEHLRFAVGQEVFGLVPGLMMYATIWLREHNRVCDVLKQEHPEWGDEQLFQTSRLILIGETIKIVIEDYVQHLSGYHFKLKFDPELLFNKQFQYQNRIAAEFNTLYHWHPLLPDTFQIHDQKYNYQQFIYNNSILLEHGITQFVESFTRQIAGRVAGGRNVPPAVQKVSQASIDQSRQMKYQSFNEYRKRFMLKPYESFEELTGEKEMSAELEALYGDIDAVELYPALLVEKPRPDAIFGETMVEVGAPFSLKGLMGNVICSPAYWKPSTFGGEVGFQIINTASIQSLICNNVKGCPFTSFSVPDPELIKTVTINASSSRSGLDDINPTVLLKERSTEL

[5] = test system: mice; assay: Disease Activity Index in DSS mice, 21 day study; assay type: in vivo; settings: end of study period of 21 days, compared with the vehicle DSS group, P<0.04

Sequence of COX-1 enzyme (P23219 24-599): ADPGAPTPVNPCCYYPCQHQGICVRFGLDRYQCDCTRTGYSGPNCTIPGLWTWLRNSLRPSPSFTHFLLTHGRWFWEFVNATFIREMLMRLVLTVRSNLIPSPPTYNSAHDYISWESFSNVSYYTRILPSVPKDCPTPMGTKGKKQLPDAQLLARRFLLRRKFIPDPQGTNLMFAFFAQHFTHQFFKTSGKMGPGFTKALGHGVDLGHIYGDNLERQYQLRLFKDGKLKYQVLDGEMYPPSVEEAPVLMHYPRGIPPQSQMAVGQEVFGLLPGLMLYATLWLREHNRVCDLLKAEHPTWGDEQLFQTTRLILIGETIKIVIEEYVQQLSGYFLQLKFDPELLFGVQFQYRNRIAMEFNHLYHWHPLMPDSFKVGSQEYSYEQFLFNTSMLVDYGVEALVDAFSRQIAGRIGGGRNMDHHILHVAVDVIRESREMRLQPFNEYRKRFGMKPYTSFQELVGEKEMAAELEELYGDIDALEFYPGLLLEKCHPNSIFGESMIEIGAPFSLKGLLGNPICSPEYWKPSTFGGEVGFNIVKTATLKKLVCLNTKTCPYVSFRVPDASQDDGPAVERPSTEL

| SMILES | decrease of TNF-α [1] | decrease of IL-6 [2] | reduction of COX-1 enzyme activity [3] | reduction of COX-2 enzyme activity [4] | decrease in Disease Activity Index [5] |
| --- | --- | --- | --- | --- | --- |
| COc1cc(C2SCCCS2)ccc1OC(=O)/C=C/c1ccccc1 [compound 2, 4-(1,3-dithian-2-yl)-2-methoxyphenyl cinnamate] | 26% |  |  |  |  |
| CC/C=C\CC(=O)Oc1ccc(Br)cc1C1SCCCS1 [compound 1, (Z)-4-bromo-2-(1,3-dithian-2-yl)phenyl hex-3-enoate] | 53% | 19% | 38% | 45% | 23% |
